For this assay, the target named is hPin1 (Protein interacting with NIMA (-kinase)) (Homo sapiens, UniProt Q13526). The assay can be described thus: protease-coupled PPIase assay, hPin1. The assay is classed as biochemical. Particulars: hPin1 6 nM; substrate Ac-Ala-Ala-Ser(PO3H2)-Pro-Arg-pNA, trypsin; 35 mM HEPES pH 7.8, 6° C.; read-out: Specificity of the inhibition with rotamases, Target T-1 (IC50 class).

SMILES strings stand for the structures.

Chain of hPin1 (Protein interacting with NIMA (-kinase)) (Q13526 whole entry): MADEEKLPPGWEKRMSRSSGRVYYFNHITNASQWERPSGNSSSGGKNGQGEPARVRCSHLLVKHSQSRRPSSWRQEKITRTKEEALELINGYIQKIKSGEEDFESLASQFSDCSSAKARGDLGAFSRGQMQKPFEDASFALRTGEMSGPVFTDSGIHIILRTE

On to `NC(=O)[C@H](Cc1ccc2ccccc2c1)NC(=O)[C@@H]1CCCCN1CCSCP(=O)(O)O` [Compound 55, {2-[2-(1-Carbamoyl-2-naphthalen-2-yl-ethylcarbamoyl)-piperidin-1-yl]-ethylsulfanylmethyl}-phosphonic acid], for which the IC50 (as a rule, the concentration at which inhibition is half-maximal) was < 1 µM.

As to `NC(=O)[C@H](Cc1ccc2ccccc2c1)NC(=O)[C@@H]1CCCCN1C(=O)[C@H](CSCP(=O)(O)O)NC(=O)Cc1ccc2c(c1)OCO2` [Compound 56, {2-(2-Benzo[1.3]dioxol-5-yl-acetylamino)-3-[2-(1-carbamoyl-2-naphthalen-2-yl-ethylcarbamoyl)-piperidin-1-yl]-3-oxo-propylsulfanylmethyl}-phosphonic acid], the IC50 was < 1 µM. The same measure for `COc1cc(CC(=O)N[C@@H](CSCP(=O)(O)O)C(=O)N2CCCC[C@H]2C(=O)N[C@@H](Cc2ccc3ccccc3c2)C(N)=O)cc(OC)c1` [Compound 57, {3-[2-(1-Carbamoyl-2-naphthalen-2-yl-ethylcarbamoyl)-piperidin-1-yl]-2-[2-(3.5-dimethoxy-phenyl)-acetylamino]-3-oxo-propylsulfanylmethyl}-phosphonicacid]: < 1 µM; for `COc1ccccc1CC(=O)N[C@@H](CSCP(=O)(O)O)C(=O)N1CCCC[C@H]1C(=O)N[C@@H](Cc1ccc2ccccc2c1)C(N)=O` [Compound 58, {3-[2-(1-Carbamoyl-2-naphthalen-2-yl-ethylcarbamoyl)-piperidin-1-yl]-2-[2-(2-methoxy-phenyl)-acetylamino]-3-oxo-propylsulfanylmethyl}-phosphonicacid]: < 1 µM. The same measure for `O=C(NCCc1ccc2ccccc2c1)[C@@H]1CCCCN1C(=O)CSCP(=O)(O)O` [Compound 59, {2-[2-(2-Naphthalen-2-yl-ethylcarbamoyl)-piperidin-1-yl]-2-oxo-ethylsulfanylmethyl}-phosphonic acid]: 1 to 10 µM; for `O=C(Nc1ccccc1)[C@@H]1CCCCN1C(=O)CSCP(=O)(O)O` [Compound 60, [2-Oxo-2-(2-phenylcarbamoyl-piperidin-1-yl)-ethylsulfanylmethyl]-phosphonicacid]: 1 to 10 µM. On to `COc1cccc(CC(=O)N[C@@H](CSCP(=O)(O)O)C(=O)N2CCCC[C@H]2C(=O)N[C@@H](Cc2ccc3ccccc3c2)C(N)=O)c1` [Compound 61, {3-[2-(1-Carbamoyl-2-naphthalen-2-yl-ethylcarbamoyl)-piperidin-1-yl]-2-[2-(3-methoxy-phenyl)-acetylamino]-3-oxo-propylsulfanylmethyl}-phosphonicacid], for which the IC50 was < 1 µM.

As for `NC(=O)[C@H](Cc1ccc2ccccc2c1)NC(=O)[C@@H]1CCCCN1C(=O)[C@H](CSCP(=O)(O)O)NC(=O)Cc1ccc(N2CCNCC2)cc1` [Compound 62, {3-[2-(1-Carbamoyl-2-naphthalen-2-yl-ethylcarbamoyl)-piperidin-1-yl]-3-oxo-2-[2-(4-piperazin-1-yl-phenyl)-acetylamino]-propylsulfanylmethyl}-phosphonicacid], the IC50 was < 1 µM. Take `CC(C)(C)NC(=O)[C@H](Cc1ccc2ccccc2c1)NC(=O)[C@@H]1CCCCN1C(=O)CSCP(=O)(O)O` [Compound 63, {2-[2-(1-tert-Butylcarbamoyl-2-naphthalen-2-yl-ethylcarbamoyl)-piperidin-1-yl]-2-oxo-ethylsulfanylmethyl}-phosphonicacid]: the IC50 was < 1 µM. With `CNC(=O)[C@H](Cc1ccc2ccccc2c1)NC(=O)[C@@H]1CCCCN1C(=O)CSCP(=O)(O)O` [Compound 64, {2-[2-(1-Methylcarbamoyl-2-naphthalen-2-yl-ethylcarbamoyl)-piperidin-1-yl]-2-oxo-ethylsulfanylmethyl}-phosphonicacid], the half-inhibitory concentration (IC50) was < 1 µM. As for `O=C(NCc1ccccc1)[C@@H]1CCCCN1C(=O)CSCP(=O)(O)O` [Compound 66, [2-(2-Benzylcarbamoyl-piperidin-1-yl)-2-oxo-ethylsulfanylmethyl]-phosphonic acid], the IC50 lay within 1 to 10 µM. Turning to `O=C(NCCc1ccccc1)[C@@H]1CCCCN1C(=O)CSCP(=O)(O)O` [Compound 67, [2-Oxo-2-(2-phenethylcarbamoyl-piperidin-1-yl)-ethylsulfanylmethyl]-phosphonicacid], the IC50 lay in the range of 1 to 10 µM.

As to `O=C(NCCCc1ccccc1)[C@@H]1CCCCN1C(=O)CSCP(=O)(O)O` [Compound 68, {2-Oxo-2-[2-(3-phenyl-propylcarbamoyl)-piperidin-1-yl]-ethylsulfanylmethyl}-phosphonicacid], the IC50 is 1 to 10 µM. For the compound `CC(C)(C)NC(=O)[C@H](Cc1ccc2ccccc2c1)NC(=O)[C@@H]1CCCCN1CCSCP(=O)(O)O` [Compound 71, {2-[2-(1-tert-Butylcarbamoyl-2-naphthalen-2-yl-ethylcarbamoyl)-piperidin-1-yl]-ethylsulfanylmethyl}-phosphonicacid], the half-maximal inhibitory concentration (IC50) is < 1 µM. On to `O=C(NC(Cc1ccc2ccccc2c1)c1ccccc1)[C@@H]1CCCCN1C(=O)CSCP(=O)(O)O` (stereo partly shown) [Compound 73, {2-[2-(2-Naphthalen-2-yl-1-phenyl-ethylcarbamoyl)-piperidin-1-yl]-2-oxo-ethylsulfanylmethyl}-phosphonic acid], for which the IC50 was < 1 µM. `Cc1csc(C(Cc2ccc3ccccc3c2)NC(=O)[C@@H]2CCCCN2C(=O)CSCP(=O)(O)O)n1` (stereo partly shown) [Compound 74, (2-{2-[1-(4-Methyl-thiazol-2-yl)-2-naphthalen-2-yl-ethylcarbamoyl]-piperidin-1-yl}-2-oxo-ethylsulfanylmethyl)-phosphonic acid]: the IC50 was in the range of 1 to 10 µM. Take `O=C(NC(Cc1ccc2ccccc2c1)c1nnco1)[C@@H]1CCCCN1C(=O)CSCP(=O)(O)O` (stereo partly shown) [Compound 75, {2-[2-(2-Naphthalen-2-yl-1-[1,3,4]oxadiazol-2-yl-ethylcarbamoyl)-piperidin-1-yl]-2-oxo-ethylsulfanylmethyl}-phosphonic acid]: the IC50 is < 1 µM. As for `O=C(NC(Cc1ccc2ccccc2c1)c1nnc[nH]1)[C@@H]1CCCCN1C(=O)CSCP(=O)(O)O` (stereo partly shown) [Compound 76, (2-{2-[2-Naphthalen-2-yl-1-(4H-[1,2,4]triazol-3-yl)-ethylcarbamoyl]-piperidin-1-yl}-2-oxo-ethylsulfanylmethyl)-phosphonic acid], the IC50 is < 1 µM. Consider `O=C(NC(Cc1ccc2ccccc2c1)c1ccccn1)[C@@H]1CCCCN1C(=O)CSCP(=O)(O)O` (stereo partly shown) [Compound 77, {2-[2-(2-Naphthalen-2-yl-1-pyridin-2-yl-ethylcarbamoyl)-piperidin-1-yl]-2-oxo-ethylsulfanylmethyl}-phosphonicacid], for which the IC50 was < 1 µM.
